Test results from patent publication US8822146B2, “Derivatization of biomolecules by covalent coupling of non-cofactor compounds using methyltransferases” (Vilnius University, priority 2009, dated 2014).

Tests used:
[1] = target: M.Hhal (Haemophilus parahaemolyticus, UniProt P05102); experiment: DNA protection assay: pUC-618 fragment modified with aldehyde in the presence of M.Hhal, then R.Hin6I cleavage; type: biochemical; settings: 800 mM acetaldehyde, 50 nM M.Hhal, 100 nM pUC-618, 1 hour, room temperature
Protocol: A 618 bp fragment of plasmid […] (pUC-618), which contains a single target site for M.Hhal, was used as a DNA substrate. pUC-618 was prepared by PCR amplification of the pUC19 template (Fermentas Life Sciences) using Dir (5′-[…]) (SEQ ID No:11) and Rev (5′-[…]) (SEQ ID No:12) primers and Taq DNA Polymerase (Fermentas Life Sciences). The PCR fragment was purified by Sephacryl S-400 (GE Healthcare) following the precipitation by ethanol. pUC-618 contains a single target site for M.Hhal.

[2] = target: M.Sssl (Spiroplasma monobiae, UniProt P15840); settings: 13 mM formaldehyde, 500 nM M.Sssl, 100 nM pUC-618, 1 hour, room temperature
[3] = target: M.Hpall (Haemophilus parainfluenzae, UniProt P15446); settings: 13 mM formaldehyde, 1000 nM M.Hpall, 100 nM pUC-618, 1 hour, room temperature
Chain of M.Hpall (P15446 whole entry): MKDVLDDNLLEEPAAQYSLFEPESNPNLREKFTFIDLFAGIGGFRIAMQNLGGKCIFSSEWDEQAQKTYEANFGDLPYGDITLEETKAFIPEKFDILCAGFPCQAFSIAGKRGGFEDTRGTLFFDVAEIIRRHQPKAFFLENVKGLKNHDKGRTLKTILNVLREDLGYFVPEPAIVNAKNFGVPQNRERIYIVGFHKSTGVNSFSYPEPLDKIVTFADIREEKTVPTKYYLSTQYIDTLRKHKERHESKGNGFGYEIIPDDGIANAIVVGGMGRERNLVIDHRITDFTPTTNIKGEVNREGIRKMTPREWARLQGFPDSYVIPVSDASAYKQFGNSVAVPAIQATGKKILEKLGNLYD

Chain of M.Sssl (P15840 whole entry): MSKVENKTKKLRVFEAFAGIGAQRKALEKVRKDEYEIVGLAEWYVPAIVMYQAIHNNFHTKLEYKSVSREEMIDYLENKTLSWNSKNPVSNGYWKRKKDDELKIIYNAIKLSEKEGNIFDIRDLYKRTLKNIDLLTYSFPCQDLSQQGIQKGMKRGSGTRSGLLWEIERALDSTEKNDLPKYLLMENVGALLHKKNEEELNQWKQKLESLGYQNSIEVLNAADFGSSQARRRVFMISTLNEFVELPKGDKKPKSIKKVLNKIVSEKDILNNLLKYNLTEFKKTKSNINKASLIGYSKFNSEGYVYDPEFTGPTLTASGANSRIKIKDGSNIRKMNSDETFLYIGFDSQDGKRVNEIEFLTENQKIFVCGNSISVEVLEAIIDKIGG
Chain of M.Hhal (P05102 whole entry, the tested form may be a part): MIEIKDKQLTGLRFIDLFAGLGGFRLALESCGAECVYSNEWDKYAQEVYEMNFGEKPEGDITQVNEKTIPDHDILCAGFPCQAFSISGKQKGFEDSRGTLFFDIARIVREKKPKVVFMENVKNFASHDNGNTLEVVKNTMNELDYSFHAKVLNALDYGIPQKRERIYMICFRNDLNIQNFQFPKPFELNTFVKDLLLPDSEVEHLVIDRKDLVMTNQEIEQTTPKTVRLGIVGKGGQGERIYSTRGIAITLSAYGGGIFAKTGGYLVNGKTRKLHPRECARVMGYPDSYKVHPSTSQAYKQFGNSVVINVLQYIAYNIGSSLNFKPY

SMILES | resistance of the GCGC site to R.Hin6I cleavage [1] | resistance of the GCGC site to cleavage with R.Hin6I [2] [%] | resistance of the CCGG sites to cleavage with R.Hpall [3] [%]
CC=O [acetaldehyde] | nearly fully |  | 
C=O [formaldehyde] |  | 70 | 70
